Active and inactive are the calls of the source.
Key:
[1] = system: Escherichia coli; assay: microbe, parasite or virus in culture
[2] = target: T1, Protein RecA (Mycobacterium tuberculosis, UniProt P9WHJ3); assay: Fluorescence Cell-Free Homogeneous Dose Retest to Identify Inhibitors of RecA-Intein Splicing Activity. [Related pubchem assays (depositor defined):AID2097, AID2223, AID489010, AID492950]; type: functional
T1 sequence (P9WHJ3 whole entry): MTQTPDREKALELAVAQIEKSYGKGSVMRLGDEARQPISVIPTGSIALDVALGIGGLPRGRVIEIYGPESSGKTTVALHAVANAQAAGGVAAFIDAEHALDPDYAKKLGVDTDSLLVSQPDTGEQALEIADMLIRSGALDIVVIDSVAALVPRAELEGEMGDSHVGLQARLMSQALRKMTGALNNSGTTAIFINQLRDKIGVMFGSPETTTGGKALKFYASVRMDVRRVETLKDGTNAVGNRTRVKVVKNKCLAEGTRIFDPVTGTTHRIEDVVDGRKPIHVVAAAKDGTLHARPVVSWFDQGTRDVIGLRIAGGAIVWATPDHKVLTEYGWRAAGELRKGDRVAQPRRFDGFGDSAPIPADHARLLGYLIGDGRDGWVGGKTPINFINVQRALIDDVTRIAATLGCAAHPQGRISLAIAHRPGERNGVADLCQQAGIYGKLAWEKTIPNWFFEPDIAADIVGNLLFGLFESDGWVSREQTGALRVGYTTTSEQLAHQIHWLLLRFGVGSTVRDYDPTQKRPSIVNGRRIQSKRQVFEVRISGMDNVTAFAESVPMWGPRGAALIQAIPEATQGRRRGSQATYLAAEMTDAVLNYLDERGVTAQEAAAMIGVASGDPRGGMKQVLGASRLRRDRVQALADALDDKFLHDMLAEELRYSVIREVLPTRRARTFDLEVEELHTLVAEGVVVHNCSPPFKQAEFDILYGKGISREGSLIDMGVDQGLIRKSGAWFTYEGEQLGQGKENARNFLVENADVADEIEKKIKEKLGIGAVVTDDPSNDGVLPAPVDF

[3] = system: Vero; assay: viability of Vero cells under compound – cytotoxicity control for flavivirus capping enzyme inhibitors (AID 588742); type: functional; conditions: Chlorocebus sabaeus
[4] = target: Keap1/Nrf2 (Homo sapiens, UniProt Q14145); assay: disruptors of Keap1 binding to Nrf2 peptide – biochemical, fluorescence polarization, cherry-picked samples, dose response (AID 588683)
Chain of Keap1/Nrf2 (Q16236 whole entry): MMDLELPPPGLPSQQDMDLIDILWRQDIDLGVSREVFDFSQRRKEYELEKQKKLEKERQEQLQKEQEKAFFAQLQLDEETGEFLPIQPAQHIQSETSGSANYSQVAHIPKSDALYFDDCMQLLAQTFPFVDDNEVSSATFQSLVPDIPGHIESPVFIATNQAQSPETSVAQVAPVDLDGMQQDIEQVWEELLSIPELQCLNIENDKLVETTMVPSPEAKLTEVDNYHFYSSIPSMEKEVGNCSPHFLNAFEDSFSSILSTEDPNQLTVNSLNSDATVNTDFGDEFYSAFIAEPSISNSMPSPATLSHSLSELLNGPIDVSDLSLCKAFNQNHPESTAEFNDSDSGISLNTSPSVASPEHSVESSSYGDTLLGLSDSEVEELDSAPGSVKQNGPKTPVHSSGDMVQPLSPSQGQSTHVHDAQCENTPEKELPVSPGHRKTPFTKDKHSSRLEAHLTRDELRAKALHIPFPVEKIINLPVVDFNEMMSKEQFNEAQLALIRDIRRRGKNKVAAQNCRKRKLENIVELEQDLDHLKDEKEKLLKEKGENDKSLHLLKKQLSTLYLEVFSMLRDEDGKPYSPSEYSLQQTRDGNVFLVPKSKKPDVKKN
Chain of Keap1/Nrf2 (Q14145 whole entry): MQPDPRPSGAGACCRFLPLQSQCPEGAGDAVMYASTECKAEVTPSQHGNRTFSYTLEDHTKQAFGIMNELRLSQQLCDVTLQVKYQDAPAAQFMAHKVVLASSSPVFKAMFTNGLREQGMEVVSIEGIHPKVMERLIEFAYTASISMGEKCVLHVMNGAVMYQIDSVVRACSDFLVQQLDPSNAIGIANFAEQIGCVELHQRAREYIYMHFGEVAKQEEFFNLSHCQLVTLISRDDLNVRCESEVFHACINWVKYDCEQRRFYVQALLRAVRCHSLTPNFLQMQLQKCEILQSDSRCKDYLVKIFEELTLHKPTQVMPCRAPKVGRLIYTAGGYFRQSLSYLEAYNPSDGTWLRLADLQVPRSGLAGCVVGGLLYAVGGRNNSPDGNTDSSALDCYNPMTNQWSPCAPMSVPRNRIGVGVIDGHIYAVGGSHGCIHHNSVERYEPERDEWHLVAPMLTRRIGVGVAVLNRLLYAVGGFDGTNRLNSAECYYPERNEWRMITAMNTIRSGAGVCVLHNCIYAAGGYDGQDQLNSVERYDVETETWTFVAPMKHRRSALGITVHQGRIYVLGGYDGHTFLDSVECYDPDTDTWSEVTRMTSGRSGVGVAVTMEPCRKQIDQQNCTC

[5] = target: Genome polyprotein (dengue virus type 2, UniProt P29990); assay: flavivirus cap methylation enzyme inhibition – biochemical, confirmation dose response, primary screen (AID 588689); type: functional
Chain of Genome polyprotein (P29990 2492-3391 limits assumed): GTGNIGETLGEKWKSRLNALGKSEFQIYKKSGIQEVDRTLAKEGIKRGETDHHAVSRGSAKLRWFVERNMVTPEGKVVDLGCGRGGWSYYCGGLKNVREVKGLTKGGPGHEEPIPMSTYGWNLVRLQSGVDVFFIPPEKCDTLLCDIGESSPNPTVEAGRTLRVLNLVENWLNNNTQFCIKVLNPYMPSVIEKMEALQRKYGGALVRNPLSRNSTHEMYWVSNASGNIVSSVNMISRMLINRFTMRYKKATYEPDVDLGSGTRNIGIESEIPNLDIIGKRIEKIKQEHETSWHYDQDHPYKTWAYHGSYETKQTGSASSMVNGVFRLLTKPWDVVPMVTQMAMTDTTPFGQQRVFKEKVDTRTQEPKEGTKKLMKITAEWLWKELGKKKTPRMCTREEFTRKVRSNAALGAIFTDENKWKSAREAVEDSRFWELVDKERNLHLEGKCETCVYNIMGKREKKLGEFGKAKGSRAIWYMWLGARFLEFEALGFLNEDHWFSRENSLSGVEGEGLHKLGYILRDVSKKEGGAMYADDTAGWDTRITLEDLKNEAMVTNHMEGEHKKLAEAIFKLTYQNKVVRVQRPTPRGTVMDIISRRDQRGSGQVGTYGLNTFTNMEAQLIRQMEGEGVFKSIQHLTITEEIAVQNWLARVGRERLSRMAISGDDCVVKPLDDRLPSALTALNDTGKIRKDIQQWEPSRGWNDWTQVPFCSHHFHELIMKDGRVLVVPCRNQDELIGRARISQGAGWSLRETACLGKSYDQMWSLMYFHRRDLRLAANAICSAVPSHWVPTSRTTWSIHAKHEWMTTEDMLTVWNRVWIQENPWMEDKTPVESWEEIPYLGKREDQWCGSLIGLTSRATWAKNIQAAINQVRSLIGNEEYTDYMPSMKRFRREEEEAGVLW

[6] = target: T2, Replicative DNA helicase DnaB (Mycobacterium tuberculosis, UniProt P9WMR3); assay: DnaB intein splicing inhibitors, dose response, biochemical, cell-free fluorescence (AID 449749); type: functional
T2 sequence (P9WMR3 whole entry): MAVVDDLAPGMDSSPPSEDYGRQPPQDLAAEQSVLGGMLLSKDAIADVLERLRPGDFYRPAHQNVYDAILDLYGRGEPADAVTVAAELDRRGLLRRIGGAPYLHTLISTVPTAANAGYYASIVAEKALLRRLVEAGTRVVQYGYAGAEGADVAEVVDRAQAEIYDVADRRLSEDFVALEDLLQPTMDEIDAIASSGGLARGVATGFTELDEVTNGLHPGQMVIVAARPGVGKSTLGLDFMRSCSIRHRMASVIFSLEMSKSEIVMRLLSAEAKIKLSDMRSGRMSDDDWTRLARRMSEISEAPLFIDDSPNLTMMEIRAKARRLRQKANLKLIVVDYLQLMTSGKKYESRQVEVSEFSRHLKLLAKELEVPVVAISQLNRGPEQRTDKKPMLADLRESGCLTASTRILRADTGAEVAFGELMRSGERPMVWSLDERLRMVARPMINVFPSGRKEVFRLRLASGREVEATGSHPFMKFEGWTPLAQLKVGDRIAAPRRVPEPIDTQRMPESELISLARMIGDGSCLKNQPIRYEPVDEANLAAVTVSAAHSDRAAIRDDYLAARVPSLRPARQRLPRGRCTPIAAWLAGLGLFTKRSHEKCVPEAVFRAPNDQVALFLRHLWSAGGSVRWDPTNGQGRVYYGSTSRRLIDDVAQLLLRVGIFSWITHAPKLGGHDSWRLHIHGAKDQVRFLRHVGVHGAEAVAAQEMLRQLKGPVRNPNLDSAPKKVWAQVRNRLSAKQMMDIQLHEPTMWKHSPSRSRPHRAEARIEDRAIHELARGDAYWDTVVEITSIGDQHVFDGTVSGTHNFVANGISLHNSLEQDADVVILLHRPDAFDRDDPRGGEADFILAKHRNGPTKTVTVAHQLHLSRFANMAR

[7] = system: HEK293; assay: cells; conditions: Homo sapiens
[8] = system: HEK293; assay: cells; conditions: Homo sapiens; remark: listed apart in the source
[9] = cells
[10] = viability of uninfected HEp-2 cells – cell-based, HTS, cytotoxicity control for RSV inhibitor project, dose response (AID 2410); type: functional; conditions: human respiratory syncytial virus
[11] = system: Vero; assay: cells; type: functional; conditions: Chlorocebus sabaeus
[12] = system: Vero; assay: cells; type: functional, cell-based; conditions: Chlorocebus sabaeus
[13] = target: T3, Dual specificity protein phosphatase 3 (Homo sapiens, UniProt P51452); assay: SAR VHR1 Fluorescent Assay for In Vitro dose response studies Set 3. [Related pubchem assays (depositor defined):AID1654, AID1661, AID1878]; type: functional
T3 sequence (P51452 whole entry): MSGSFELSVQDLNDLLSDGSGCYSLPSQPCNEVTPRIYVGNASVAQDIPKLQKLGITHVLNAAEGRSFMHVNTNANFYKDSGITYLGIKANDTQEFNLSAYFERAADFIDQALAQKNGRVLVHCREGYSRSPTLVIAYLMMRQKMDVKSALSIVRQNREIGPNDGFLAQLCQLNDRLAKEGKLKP

[14] = target: T4, Tyrosine-protein phosphatase non-receptor type 7 (Homo sapiens, UniProt P35236); assay: Dose Response confirmation of compounds that inhibit HePTP. [Related pubchem assays (depositor defined):AID1059, AID1661, AID2085]; type: functional
T4 sequence (P35236 whole entry): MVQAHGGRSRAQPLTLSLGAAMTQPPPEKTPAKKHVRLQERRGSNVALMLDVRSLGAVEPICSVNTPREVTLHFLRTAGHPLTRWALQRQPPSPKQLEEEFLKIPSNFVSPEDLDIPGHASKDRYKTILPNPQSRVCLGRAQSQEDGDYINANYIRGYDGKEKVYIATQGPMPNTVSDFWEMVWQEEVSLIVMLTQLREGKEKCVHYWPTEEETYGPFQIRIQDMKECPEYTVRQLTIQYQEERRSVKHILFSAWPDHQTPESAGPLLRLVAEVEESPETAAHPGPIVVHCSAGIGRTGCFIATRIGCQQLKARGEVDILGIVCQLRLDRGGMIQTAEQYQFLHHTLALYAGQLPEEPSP

[15] = target: T5, Heat shock 70 kDa protein 1A (Homo sapiens, UniProt P0DMV8); assay: small-molecule inhibition of Hsp70 – biochemical, TR-FRET (AID 786)
T5 sequence (P0DMV8 whole entry): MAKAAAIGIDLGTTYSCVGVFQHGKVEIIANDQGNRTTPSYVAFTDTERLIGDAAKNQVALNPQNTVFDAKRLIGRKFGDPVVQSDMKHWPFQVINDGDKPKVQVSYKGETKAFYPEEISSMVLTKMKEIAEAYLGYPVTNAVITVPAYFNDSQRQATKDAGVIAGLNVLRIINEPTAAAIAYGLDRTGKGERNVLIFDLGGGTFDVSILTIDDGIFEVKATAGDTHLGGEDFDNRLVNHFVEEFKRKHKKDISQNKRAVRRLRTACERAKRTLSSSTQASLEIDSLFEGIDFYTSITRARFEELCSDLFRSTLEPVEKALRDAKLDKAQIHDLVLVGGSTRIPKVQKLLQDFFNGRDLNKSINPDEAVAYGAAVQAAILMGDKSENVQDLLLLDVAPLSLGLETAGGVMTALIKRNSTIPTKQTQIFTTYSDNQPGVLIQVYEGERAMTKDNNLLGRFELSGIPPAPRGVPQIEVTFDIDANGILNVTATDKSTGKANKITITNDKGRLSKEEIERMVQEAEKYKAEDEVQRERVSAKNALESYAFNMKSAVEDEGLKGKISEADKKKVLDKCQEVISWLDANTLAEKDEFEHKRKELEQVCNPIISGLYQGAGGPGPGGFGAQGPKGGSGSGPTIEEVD

[16] = target: T6, fMet-Leu-Phe receptor (Homo sapiens, UniProt P21462); assay: formyl peptide receptor binders – dose response (AID 519); type: functional
T6 sequence (P21462 whole entry): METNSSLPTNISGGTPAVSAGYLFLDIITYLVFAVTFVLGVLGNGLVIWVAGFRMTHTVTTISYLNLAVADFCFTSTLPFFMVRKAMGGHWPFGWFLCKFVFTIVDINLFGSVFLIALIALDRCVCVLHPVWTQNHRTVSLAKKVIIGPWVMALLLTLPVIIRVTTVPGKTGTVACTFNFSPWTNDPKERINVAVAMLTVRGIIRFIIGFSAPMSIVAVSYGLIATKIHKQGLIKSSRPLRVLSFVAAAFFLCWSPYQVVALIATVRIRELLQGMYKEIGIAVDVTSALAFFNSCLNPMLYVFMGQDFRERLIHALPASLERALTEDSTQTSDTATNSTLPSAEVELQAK

[17] = target: T5, Heat shock 70 kDa protein 1A; assay: small molecules displacing fluorescent ligand from Hsp70 – biochemical, fluorescence polarization, primary screen (AID 583)
[18] = target: Polyadenylate-binding protein 1 (Homo sapiens, UniProt P11940); assay: blockers of PABP interaction with poly(A) – biochemical, fluorescence polarization, […] (AID 2014)
Chain of Polyadenylate-binding protein 1 (P11940 whole entry, the tested form may be a part): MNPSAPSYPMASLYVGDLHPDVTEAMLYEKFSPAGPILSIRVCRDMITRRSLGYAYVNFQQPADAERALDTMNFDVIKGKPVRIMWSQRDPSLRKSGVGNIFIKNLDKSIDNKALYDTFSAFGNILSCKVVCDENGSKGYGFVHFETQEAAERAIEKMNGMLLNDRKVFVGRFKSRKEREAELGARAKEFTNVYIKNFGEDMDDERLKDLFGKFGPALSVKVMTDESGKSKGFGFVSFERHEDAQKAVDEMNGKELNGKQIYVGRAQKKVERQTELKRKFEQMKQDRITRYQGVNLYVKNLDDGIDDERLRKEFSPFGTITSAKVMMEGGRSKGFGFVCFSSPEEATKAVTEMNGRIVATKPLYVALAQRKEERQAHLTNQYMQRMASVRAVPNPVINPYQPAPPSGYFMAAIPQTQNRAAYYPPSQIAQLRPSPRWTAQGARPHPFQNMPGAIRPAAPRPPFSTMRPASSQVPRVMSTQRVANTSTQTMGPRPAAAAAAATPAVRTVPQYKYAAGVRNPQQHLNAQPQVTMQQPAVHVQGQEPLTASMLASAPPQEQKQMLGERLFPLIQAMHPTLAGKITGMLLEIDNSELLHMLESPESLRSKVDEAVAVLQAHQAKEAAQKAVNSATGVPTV

[19] = blockers of HIV-1 envelope-mediated cell-cell fusion – cherry-pick, dose response (AID 652057); type: functional, cell-based
[20] = viability loss in CEM21 cells – cell-based, CellTiter-Glo luminescence, cherry-picked, cytotoxicity control for viral fusion inhibitor project, dose response (AID 652042); type: functional;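 further: potency for signal decrease meaning cytotoxicity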
[21] = target: T7, Insulin-degrading enzyme (Homo sapiens, UniProt P14735); assay: Dose Response: Fluorescence polarization-based cell-based high throughput dose response assay for inhibitors of insulin-degrading enzyme (IDE). [Related pubchem assays: 434962 (Primary screen (IDE inhibitors in singlicate)), 449730 (Counterscreen (Cytotoxicity in triplicate)), 435028 (Confirmation (IDE inhibitors in triplicate)), 434984 (Summary …; type: functional
T7 sequence (P14735 whole entry): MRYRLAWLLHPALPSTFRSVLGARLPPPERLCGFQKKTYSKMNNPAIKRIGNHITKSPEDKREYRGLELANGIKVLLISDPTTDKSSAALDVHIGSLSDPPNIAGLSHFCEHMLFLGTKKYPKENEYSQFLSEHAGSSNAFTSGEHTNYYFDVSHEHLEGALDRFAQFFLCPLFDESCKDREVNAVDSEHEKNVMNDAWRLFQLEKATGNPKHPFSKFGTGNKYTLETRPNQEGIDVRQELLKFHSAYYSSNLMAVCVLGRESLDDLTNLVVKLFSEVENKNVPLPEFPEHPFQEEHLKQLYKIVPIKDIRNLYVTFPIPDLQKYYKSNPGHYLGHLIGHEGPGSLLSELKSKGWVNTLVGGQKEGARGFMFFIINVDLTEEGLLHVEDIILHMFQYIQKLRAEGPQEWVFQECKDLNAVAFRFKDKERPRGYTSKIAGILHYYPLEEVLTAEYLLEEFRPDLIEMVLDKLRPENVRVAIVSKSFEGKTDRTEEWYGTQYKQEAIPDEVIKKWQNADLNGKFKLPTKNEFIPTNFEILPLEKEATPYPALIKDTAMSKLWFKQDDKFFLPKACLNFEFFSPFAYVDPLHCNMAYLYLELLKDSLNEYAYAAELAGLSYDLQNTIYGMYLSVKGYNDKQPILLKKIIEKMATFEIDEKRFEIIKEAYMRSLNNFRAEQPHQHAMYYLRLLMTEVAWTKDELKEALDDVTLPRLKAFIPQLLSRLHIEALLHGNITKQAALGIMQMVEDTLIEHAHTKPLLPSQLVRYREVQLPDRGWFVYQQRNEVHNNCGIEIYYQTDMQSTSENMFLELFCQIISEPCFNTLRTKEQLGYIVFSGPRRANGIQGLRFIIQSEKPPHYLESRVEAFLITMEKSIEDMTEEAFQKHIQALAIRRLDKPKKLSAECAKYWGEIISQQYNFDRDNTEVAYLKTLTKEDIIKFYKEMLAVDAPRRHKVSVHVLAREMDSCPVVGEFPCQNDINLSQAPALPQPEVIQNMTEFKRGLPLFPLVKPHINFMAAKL

[22] = target: Eukaryotic translation initiation factor 4H (Homo sapiens, UniProt Q15056); assay: eIF4H binding inhibition – biochemical, uHTS, fluorescence polarization, translation initiation inhibitor project, primary screen (AID 2012)
[23] = target: T3, Dual specificity protein phosphatase 3; assay: Dose Response Confirmation of compounds that inhibit VHR1 in Fluorescent Assay. [Related pubchem assays (depositor defined):AID1661, AID1878]; type: functional
[24] = target: Protein-tyrosine kinase 2-beta (Homo sapiens, UniProt Q14289);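 further: potency of inhibitors of PYK2 kinase phosphorylation of poly-GT substrate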
Chain of Protein-tyrosine kinase 2-beta (Q14289 whole entry): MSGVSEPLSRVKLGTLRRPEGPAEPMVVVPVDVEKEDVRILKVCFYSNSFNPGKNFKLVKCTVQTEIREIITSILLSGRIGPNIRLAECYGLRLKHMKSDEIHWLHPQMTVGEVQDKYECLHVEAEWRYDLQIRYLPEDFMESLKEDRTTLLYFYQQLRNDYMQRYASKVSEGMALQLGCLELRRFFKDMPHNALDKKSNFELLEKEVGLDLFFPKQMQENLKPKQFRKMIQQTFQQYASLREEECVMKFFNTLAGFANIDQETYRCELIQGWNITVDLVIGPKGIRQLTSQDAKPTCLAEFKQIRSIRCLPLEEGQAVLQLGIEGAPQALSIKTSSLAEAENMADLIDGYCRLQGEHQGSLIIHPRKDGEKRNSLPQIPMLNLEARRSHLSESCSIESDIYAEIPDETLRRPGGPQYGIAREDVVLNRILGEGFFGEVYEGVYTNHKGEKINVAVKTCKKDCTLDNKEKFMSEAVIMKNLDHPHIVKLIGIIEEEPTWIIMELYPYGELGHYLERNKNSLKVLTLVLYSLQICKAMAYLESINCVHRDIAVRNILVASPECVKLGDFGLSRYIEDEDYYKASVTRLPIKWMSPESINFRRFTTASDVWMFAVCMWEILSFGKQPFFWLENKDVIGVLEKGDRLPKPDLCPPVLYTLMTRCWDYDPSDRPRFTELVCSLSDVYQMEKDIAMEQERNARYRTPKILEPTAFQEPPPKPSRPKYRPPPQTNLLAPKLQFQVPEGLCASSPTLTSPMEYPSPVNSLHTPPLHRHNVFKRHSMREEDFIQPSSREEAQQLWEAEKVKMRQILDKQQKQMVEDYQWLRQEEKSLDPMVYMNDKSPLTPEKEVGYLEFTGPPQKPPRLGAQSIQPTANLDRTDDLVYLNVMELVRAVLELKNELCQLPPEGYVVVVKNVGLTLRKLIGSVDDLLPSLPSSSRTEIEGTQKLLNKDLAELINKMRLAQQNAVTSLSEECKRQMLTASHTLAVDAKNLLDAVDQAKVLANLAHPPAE

[25] = Counterscreen for IDE inhibitors: Luminescence-based cell-based high throughput dose response assay to identify compounds that are cytotoxic to HEK cells. [Related pubchem assays: 434962 (Primary screen (IDE inhibitors in singlicate)), 449730 (Counterscreen (Cytotoxicity in triplicate)), 435028 (Confirmation (IDE inhibitors in triplicate)) …; type: functional; conditions: HEK293

CCCC(C(=O)NNC(=O)c1cc(C)oc1C)c1ccccc1 (stereo not given)
AC50 [1]: 31.7 µM (active)

O=C1/C(=N\S(=O)(=O)c2ccc([N+](=O)[O-])cc2)C(Cl)=C(O)c2ccccc21
EC50 [2]: 1.26 µM (active)
CC50 [3]: 34.2 µM (active)
AC50 [4]: > 52 µM (inactive)
IC50 [5]: 76.9 µM (active)
AC50 [6]: 6.49 µM (active)

Cc1nn2c(nc(N3CCCCC3)c3ccccc32)c1C=O
EC50 [7]: > 59.7 µM (inactive)
EC50 [8]: > 59.7 µM (inactive)

CC1Cc2ccccc2N1S(=O)(=O)c1cccc(C(=O)N2CCN(c3ncccn3)CC2)c1 (stereo not given)
IC50 [9]: 1.01 µM (active)
CC50 [10]: 3.41 µM (active)
CC50 [11]: > 25 µM (active)
IC50 [12]: 2.15 µM (active)

COc1ccc(-c2nnc(Nc3nc4c(OC)cccc4s3)o2)cc1
IC50 [13]: 3.61 µM (active)
IC50 [14]: 6.08 µM (active)
IC50 [15]: > 100 µM (not active)
Ki [16]: > 66.7 µM (inactive)
IC50 [17]: > 100 µM (not active)
IC50 [18]: > 100 µM (inactive)
AC50 [19]: 5.28 µM (active)
AC50 [20]: 52.2 µM (active)
IC50 [21]: > 55.9 µM (not active)
IC50 [22]: 12.5 µM (active)
IC50 [23]: 1.78 µM (active)
IC50 [24]: 9.06 µM (active)
IC50 [25]: 17.1 µM (not active)

Source: ChEMBL document CHEMBL1201862, “PubChem BioAssay data set” (2004)
